Experimental data: the supplement of paper PMC11208160

Assay: recombinant barcode read abundance after kanamycin selection (control-corrected) (log10(CPM+1)); higher = more efficient recombination; sequences stand for … in AGTGCAGAGAAAATCGGCCAGTTTTCTCTGCCTGCAGTCCGCATGCCGT…AGATTTATGCAGCGGACTGCCTTTCTCCCAAAGTGATAAACCGGACAGTATCATGGACCGGTTTTCCCGGTAATCCGTATTTGCAAGGTTGGTTTCACT; site = the 11-nt target
Outline: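 Pooled E. coli screen pairing targets with IS621 bridge RNA target-binding loops. Each oligo (promoter, target, barcode, J23119-driven first 104 bridge RNA bases) was Gibson-cloned into a vector with the remaining 73 bp and T7-inducible recombinase, then co-electroporated with a donor plasmid. Two replicates each were plated on chloramphenicol/ampicillin LB agar (control) or chloramphenicol/ampicillin/kanamycin with 0.1 mM IPTG. Recombination efficiency is recombinant-junction barcode counts as CPM, averaged, control-corrected, reported as log10(CPM+1).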
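Further: IS621 recombinase and bridge RNA in Escherichia coli cells.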

Sequence	recombinant barcode read abundance (log10)
ATATGTGCTTGGGTTCTAACCTGTTGCCG (site ATATGAGCTCG)	0.0211
ATATGTGCTTGGGTTCTAACCTGTTGCCG (site ATATGCGCTCG)	0.0242
ATATGTGCTTGGGTTCTAACCTGTTGCCG (site ATATGGGCTCG)	0.108
ATATGTGCTTGGGTTCTAACCTGTTGCCG (site ATATGTGCTCG)	1.71
ATCAAGACTTGGGTTCTAACCTGTTGCCT (site ATAAAGACTAG)	0.266
ATCAAGACTTGGGTTCTAACCTGTTGCCT (site ATCAAGACTAG)	1.42
ATCAAGACTTGGGTTCTAACCTGTTGCCT (site ATGAAGACTAG)	0.252
ATCAAGACTTGGGTTCTAACCTGTTGCCT (site ATTAAGACTAG)	0.272
ATCACACCTTGGGTTCTAACCTGTTGCCT (site ATCACACCTAG)	0.761
ATCACACCTTGGGTTCTAACCTGTTGCCT (site CTCACACCTAG)	0.102
ATCACGTCTTGGGTTCTAACCTGTTGCCT (site ATCACGTCTAG)	1.4
ATCACGTCTTGGGTTCTAACCTGTTGCCT (site CAGCATCCTCT)	0.0385
ATCAGTTCTTGGGTTCTAACCTGTTGCTG (site ATCAGTTCTCA)	0.074
ATCAGTTCTTGGGTTCTAACCTGTTGCTG (site GATTTCGCTAG)	0.155
ATCCAACCTTGGGTTCTAACCTGTTGCCT (site ATCCAACCTAG)	1.89
ATCCAACCTTGGGTTCTAACCTGTTGCCT (site ATCCACCCTAG)	0.123
ATCCAACCTTGGGTTCTAACCTGTTGCCT (site ATCCAGCCTAG)	0.348
ATCCAACCTTGGGTTCTAACCTGTTGCCT (site ATCCATCCTAG)	0.0128
ATCCACCCTTGGGTTCTAACCTGTTGCCT (site ATCCAACCTAG)	0.15
ATCCACCCTTGGGTTCTAACCTGTTGCCT (site ATCCACCCTAG)	2.07
ATCCACCCTTGGGTTCTAACCTGTTGCCT (site ATCCAGCCTAG)	0.207
ATCCACCCTTGGGTTCTAACCTGTTGCCT (site ATCCATCCTAG)	0.0749

Sequence	recombinant barcode read abundance (log10)
ATCCACCCTTGGGTTCTAACCTGTTGCGG (site ATCCACCCTCC)	3.07
ATCCACCCTTGGGTTCTAACCTGTTGCGG (site GACCACCCTCC)	0.218
ATCCATCCTTGGGTTCTAACCTGTTGCCT (site ATCCAACCTAG)	0.00851
ATCCATCCTTGGGTTCTAACCTGTTGCCT (site ATCCACCCTAG)	0.0821
ATCCATCCTTGGGTTCTAACCTGTTGCCT (site ATCCAGCCTAG)	0.0583
ATCCATCCTTGGGTTCTAACCTGTTGCCT (site ATCCATCCTAG)	0.969
ATCCCATCTTGGGTTCTAACCTGTTGCCT (site ATACCATCTAG)	0.383
ATCCCATCTTGGGTTCTAACCTGTTGCCT (site ATCCCATCTAG)	0.619
ATCCCATCTTGGGTTCTAACCTGTTGCCT (site ATGCCATCTAG)	0.0333
ATCCCATCTTGGGTTCTAACCTGTTGCCT (site ATTCCATCTAG)	0.0512
ATCCCCTCTTGGGTTCTAACCTGTTGCCT (site ATCCCCTCTAG)	2.53
ATCCCCTCTTGGGTTCTAACCTGTTGCCT (site ATCGCCTCTAG)	0.031
ATCGAGTCTTGGGTTCTAACCTGTTGCCT (site AACGAGTCTAG)	0.139
ATCGAGTCTTGGGTTCTAACCTGTTGCCT (site ACCGAGTCTAG)	1.11
ATCGAGTCTTGGGTTCTAACCTGTTGCCT (site AGCGAGTCTAG)	0.734
ATCGAGTCTTGGGTTCTAACCTGTTGCCT (site ATCGAGTCTAG)	1.56
ATCGATGCTTGGGTTCTAACCTGTTGCCT (site ATCGATGCTAG)	0.545
ATCGATGCTTGGGTTCTAACCTGTTGCCT (site ATCTATTCTAG)	0.0828
ATCGCCTCTTGGGTTCTAACCTGTTGCCT (site ATCCCCTCTAG)	0.328
ATCGCCTCTTGGGTTCTAACCTGTTGCCT (site ATCGCCTCTAG)	0.742
ATCGGAGCTTGGGTTCTAACCTGTTGCGG (site ATCGGAGCTCA)	0.135
ATCGGAGCTTGGGTTCTAACCTGTTGCGG (site ATCGGAGCTCC)	1.7

Sequence	recombinant barcode read abundance (log10)
ATCGGAGCTTGGGTTCTAACCTGTTGCGG (site ATCGGAGCTCG)	0.424
ATCGGAGCTTGGGTTCTAACCTGTTGCGG (site ATCGGAGCTCT)	0.592
ATCGTATCTTGGGTTCTAACCTGTTGCGC (site ATCGTATCTGC)	0.068
ATCGTATCTTGGGTTCTAACCTGTTGCGC (site GGGCAGGCTAG)	0.832
ATCTCAACTTGGGTTCTAACCTGTTGCCT (site ACCTTAACTAG)	0.0254
ATCTCAACTTGGGTTCTAACCTGTTGCCT (site ATCTCAACTAG)	0.118
ATCTTACCTTGGGTTCTAACCTGTTGCCG (site ATCTTACCTCG)	0.448
ATCTTACCTTGGGTTCTAACCTGTTGCCG (site GTCTTCCCTCG)	0.11
ATCTTATCTTGGGTTCTAACCTGTTGCCT (site ATCTTAACTAG)	0.0526
ATCTTATCTTGGGTTCTAACCTGTTGCCT (site ATCTTACCTAG)	0.262
ATCTTATCTTGGGTTCTAACCTGTTGCCT (site ATCTTAGCTAG)	0.0977
ATCTTATCTTGGGTTCTAACCTGTTGCCT (site ATCTTATCTAG)	0.208
ATGAACCCTTGGGTTCTAACCTGTTGCGT (site ATGAACCCTAC)	1.88
ATGAACCCTTGGGTTCTAACCTGTTGCGT (site TTGAACCCTAC)	0.659
ATGAAGCCTTGGGTTCTAACCTGTTGCTT (site ATCAAGCCTAA)	0.0285
ATGAAGCCTTGGGTTCTAACCTGTTGCTT (site ATGAAGCCTAA)	0.107
ATGACTACTTGGGTTCTAACCTGTTGCTC (site ATGACTACTGA)	0.423
ATGACTACTTGGGTTCTAACCTGTTGCTC (site ATGACTACTTA)	0.135
ATGAGGTCTTGGGTTCTAACCTGTTGCTC (site ATGAGCTCTTA)	0.194
ATGAGGTCTTGGGTTCTAACCTGTTGCTC (site ATGAGGTCTGA)	1.43
ATGATTACTTGGGTTCTAACCTGTTGCCT (site ATAGTTACTAG)	0.0836
ATGATTACTTGGGTTCTAACCTGTTGCCT (site ATGATTACTAG)	0.385

Sequence	recombinant barcode read abundance (log10)
ATGCAACCTTGGGTTCTAACCTGTTGCCT (site ATGCAAACTAG)	0.216
ATGCAACCTTGGGTTCTAACCTGTTGCCT (site ATGCAACCTAG)	0.827
ATGCAACCTTGGGTTCTAACCTGTTGCCT (site ATGCAAGCTAG)	0.362
ATGCAACCTTGGGTTCTAACCTGTTGCCT (site ATGCAATCTAG)	0.293
ATGCACCCTTGGGTTCTAACCTGTTGCCT (site ATGCACCCTAG)	2
ATGCACCCTTGGGTTCTAACCTGTTGCCT (site ATGCGCCCTAG)	0.977
ATGCCGACTTGGGTTCTAACCTGTTGCCT (site ATGCCAACTAG)	0.101
ATGCCGACTTGGGTTCTAACCTGTTGCCT (site ATGCCCACTAG)	0.0898
ATGCCGACTTGGGTTCTAACCTGTTGCCT (site ATGCCGACTAG)	1.02
ATGCCGACTTGGGTTCTAACCTGTTGCCT (site ATGCCTACTAG)	0.11
ATGCGAGCTTGGGTTCTAACCTGTTGCCG (site ATGCGAGCTCA)	0.177
ATGCGAGCTTGGGTTCTAACCTGTTGCCG (site ATGCGAGCTCC)	0.358
ATGCGAGCTTGGGTTCTAACCTGTTGCCG (site ATGCGAGCTCG)	0.815
ATGCGAGCTTGGGTTCTAACCTGTTGCCG (site ATGCGAGCTCT)	0.404
ATGCGCCCTTGGGTTCTAACCTGTTGCCT (site ATGCACCCTAG)	0.43
ATGCGCCCTTGGGTTCTAACCTGTTGCCT (site ATGCGCCCTAG)	0.717
ATGCTACCTTGGGTTCTAACCTGTTGCGG (site ATGCTACCTCC)	1.2
ATGCTACCTTGGGTTCTAACCTGTTGCGG (site CACGGGGCTAG)	0.0226
ATGGGAGCTTGGGTTCTAACCTGTTGCGA (site AGGGGAGCTCC)	0.627
ATGGGAGCTTGGGTTCTAACCTGTTGCGA (site ATGGGAGCTTC)	1.14
